Results reported in patent US6369074B1, “Aminomethylene substituted non-aromatic heterocycles and use as substance P antagonists” (Pfizer Inc., priority 1992, dated 2002).
Where a name gives a salt, the structure may show the parent alone.

SMILES | melting point
COc1ccc(-n2c(C)ccc2C)cc1CN[C@H]1CCCN[C@H]1c1ccccc1 (as salt: hydrochloride) [Example 19, (2S,3S)-[5-(2,5-Dimethylpyrrol-1-yl)-2-methoxybenzyl]-(2-phenylpiperidin-3-yl) amine] | 217 °C (dec.)
COc1ccc2c(C)c(C)sc2c1CN[C@H]1CCCN[C@H]1c1ccccc1.Cl.Cl.O (hydrate or solvate) | 240 to 244 °C
